# From PMC9381536, “Non-apoptotic cell death induction via sapogenin based supramolecular particles” (Scientific Reports, 2022)
# Experiments:
# [1] = system: Calnexin; experiment: Calnexin immunofluorescence; assay type: cell-based; conditions: AG-08 treated cells
# Description: Figure 3 mRNA microarray analysis was used to identify differentially expressed genes via AG-08 treatment. (A) Heatmap representing the expressions of 193 genes with significant different expression in AG-08 treated cells compared with control. Heatmap was generated by GraphPad Prism version 8 (https://www.graphpad.com/scientific-software/prism/). (B) Protein–protein network analysis was formed via STRING. The thickness of the connecting lines indicates the strength of data support for physical and/or functional associations. (C) Pathway enrichment was determined using GO, KEGG, and Reactome pathway analysis. […] Size of circle represents the significance of enrichment. (D) The protein levels of CHOP were determined via IB. 0.5 µg/ml tunicamycin (Tun) was used as positive control. The experiments were repeated three times independently; with one representative result shown. (E) mRNA level of the CHOP was investigated using quantitative PCR (q-RTPCR). Error bars represent standard error (s.e.). p-values were calculated with respect to vehicle-treated cells by one-way Anova test. (**p < 0.005, ****p < 0.0001). (F) The expression and localization of Calnexin protein were evaluated using immunofluorescence via anti-Calnexin antibody (scale bar 25 µm).
# Cells were grown on glass coverslips and treated with AG-08. […] Mounted samples were analyzed by fluorescence microscopy (Olympus IX70, Japan).
# [2] = system: HCC1937 cells; experiment: Cell viability with Tween 20 blocking particle formation; assay type: cell-based, Human; conditions: HCC1937, 24 h
# Method: Figure 1 AG-08 mediated cytotoxicity relies on the supramolecular structures. (A) Structure of AG-08. (B) The scanning transmission electron micrograph of 16 µM AG-08 in PBS. Figure is a representative image of stained sample with uranyl acetate (5683 × magnification; scale bar 600 nm). (C) After 3 h incubation of Nile red solution with AG-08 or AG, fluorescence intensity of Nile red was measured. (D) AG-08, Staurosporine (Sta) or vehicle samples prepared in the cell condition medium was filtrated by 220 nm filter and HCC1937 cells were exposed to the filtrates. After 24 h, the viability of cells was measured and represented as a percentage of that of the vehicle control. The error bars represent mean value ± s.d. (n = 3). *p < 0.05, **p < 0.005, ***p < 0.001. […] Cell viability was detected after 24 h incubation. […]
# To verify that the activity of AG-08 arises from its supramolecular structures, freshly prepared AG-08 solutions were filtered using 220 nm-filters to remove AG-08 supramolecular particles from medium, and the filtrates were analyzed for their cytotoxicity. […]
# Figure 5 The cytotoxic activity of analogs depends on particle formation like AG-08. […] The level of released LDH was calculated as fold change relative to vehicle. […] After 24 h, cell viability was measured. […] Cell viability after 24 h was measured. […]
smiles,measurement,setting,value
Cc1ccc(S(=O)(=O)OC2CCC3(C)C4=CCC5(C)C(C6(C)CCC(C(C)(C)O)O6)C(O)CC5(C)C4C=CC3C2(C)C)cc1 (centres unmarked) [AG-08],intensity of calnexin staining,[1],significantly increased
same,"cell death in presence of Tween 20 (1:40,000)",[2],inhibited
